The text below walks through data of patent publication US4978783A, “2,6-dimethoxyhydroquinone-3-mercaptopropionic acid, 2,6-dimethoxyhydroquinone-3-mercaptoacetic acid, and antitumor use thereof” (National Science Council, priority 1990, dated 1990).

Usually solubility stands for the concentration that dissolves in the medium under given conditions. Low readings indicate little dissolved substance, high ones much dissolved substance.

In one series the test system is human tumor cell lines. Kind of series: Cytotoxicity against four/several human tumor cell lines, (MTT method). The series is classed as cell-based. The conditions noted are these: for cytotoxicity at 100 µg/mL: 96 h, each alone, DMQ-MP 1 μg/ml or D-isoascorbic acid 100 μg/ml, read-out: cytotoxicity index (CI) value, summary; for cytotoxicity compared with DMQ, in words: drug without activator, versus DMQ; for cytotoxicity in combination with L-ascorbic acid or D-isoascorbic acid, in words: several human cancer cell lines, in vitro. The text has this: (§1) A convenient cytotoxicity assay adopted in this example for the evaluation of antitumor activity is the MTT method disclosed in an article by Twentyman and Luscombe, entitled "A study of some variables in a tetrazolium dye (MTT) based assay for cell growth and chemosensitivity" Br. J. Cancer. 56, 279-285 (1987).
(§2) Four different human cancer cell lines were used in this assay. These were KB (oral epidermoid carcinoma); Colo-205 (colon adenocarcinoma); HeLa (cervical carcinoma); and HEP-2 (larynx epidermoid carcinoma).
(§3) Cells were taken from exponential phase cultures and were allowed to grow in a plate containing 96 wells using RPMI-1640 medium supplemented with 5% fetal bovine serum, 1 mM glutamine and antibiotics (penicillin and streptomycin) at 37° C. in a CO2 incubator. Cell suspensions were trypsinized and disaggregated. 3×10^3 cells were inoculated into each well in 0.18 ml of medium, to which 0.02 ml of drug was added. After 4 days of culture, 0.1 mg of 3-(4,5-dimethylthiazol-2-yl)-2,5-diphenyltetrazolium bromide (MTT) was added to each well and the plate incubated for 4 hours. The medium was then removed, 0.2 ml DMSO was added to each well and the plate agitated for 10 min. The optical density of each well was measured at a 545 nm test wavelength and a 690 nm reference wavelength using a Titertek Multiskan plate reader. Absorbance levers from drug tested cells were corrected against untreated control values.
On the technique in general: Tetrazolium dyes change colour on reduction, which living cells bring about.

Series [1] deals with Colo-205 (colon adenocarcinoma) cells. Kind of series: Cytotoxicity assay against Colo-205 cells by the MTT method. It counts as cell-based, human. The conditions noted are these: for CI: 5760 min; for Cytotoxicity index (CI): Table 1, 4 days; for CI value compared with DMQ, in words: versus DMQ. As to the method:
Four different human cancer cell lines were used in this assay.
as §3, with “Cell” for “Cells were taken from exponential phase cultures and were allowed to grow in a plate containing 96 wells using RPMI-1640 medium supplemented with 5% fetal bovine serum, 1 mM glutamine and antibiotics (penicillin and streptomycin) at 37° C. in a CO2 incubator. Cell”
(§4) *Cytotoxicity index (CI) = 100% × [1(O.D. of treated cells / O.D. o

The test system of series [2] is HEP-2 (larynx epidermoid carcinoma) cells. Kind of series: Cytotoxicity against HEP-2 cells by the MTT method. The series is classed as cell-based, human. The conditions noted are these: 5760 min.
Description: as §1, §2, §3, §4

The test system of series [3] is HeLa (cervical carcinoma) cells. Put plainly: Cytotoxicity against HeLa cells by the MTT method. It counts as cell-based, human. As to conditions: 5760 min.
Description: as §1, §2, §3, §4

For series [4], the system named is KB (oral epidermoid carcinoma) cells. Kind of series: Cytotoxicity against KB cells by the MTT method. The series is classed as cell-based, human. As to conditions: 5760 min.
Description: as §1, §2, §3, §4

The next series concerns Ehrlich ascites. As to conditions: DMQ in combination with L-ascorbic acid; cited from earlier work.
The test system of the next series is normal cells. The conditions noted are these: background statement; cited from earlier work.
For series [5] the following is noted: background statement; cited from earlier work.
The conditions of series [6]: background statement; cited from earlier work. This is another data set of the same source.
The nature of the next series: Solubility in H2O. It counts as physicochemical. The conditions noted are these: for solubility: water; for solubility / solubility relative to DMQ (times higher): H2O, 27° C.; for solubility relative to DMQ (times higher): versus DMQ; for water-solubility, in words: compared with DMQ.
Series [7] in a line: Hydrophobicity (statement). It counts as physicochemical. The conditions noted are these: to gain passage into the cell via the cell membrane.
For series [8] the following is noted: cited from earlier work.
Where [9] appears, read: Table 2, D-isoascorbic acid 100 μg/ml alone.
Where [10] appears, read: Table 3, DMQ-MA 1 μg/ml + L-ascorbate 100 μg/ml.
[11] abbreviates: Table 3, DMQ-MA 1 μg/ml, no activator.
Where [12] appears, read: Table 2, DMQ-MP 1 μg/ml + D-isoascorbic acid 100 μg/ml.
Where [13] appears, read: Table 2, DMQ-MP 1 μg/ml, no activator.
The mark [14] stands for this setting: Table 3, L-ascorbate 100 μg/ml alone.

Molecules are shown by their SMILES. In brackets after ≈: the same amount, converted by molar mass. Entries after “also recorded” stand apart in the source; their conditions may differ. Where only a bound is given, the exact number is not on record here.

As for `O=C1O[C@H]([C@H](O)CO)C(O)=C1O` [D-isoascorbic acid, reference compound], the cytotoxicity at 100 µg/mL in the series on human tumor cell lines (four human tumor cell lines) was less than 25%. The CI in series [1] (setting [9]) is on record as 24%; in series [2] (setting [9]), 13%; in series [3] (setting [9]) it was 5%; in series [4] (setting [9]), 11%.
For the molecule `COC1=CC(=O)C=C(OC)C1=O` [DMQ, 2,6-dimethoxy-p-benzoquinone], in the series with Ehrlich ascites, the “effect in Ehrlich ascites-bearing mice, in words” value is “effective”. The “cytotoxicity to normal cells, in words” value in the series on normal cells was “certain degree of cytotoxicity; also recorded: destruction of normal cells”. Moreover, the “precipitation from the blood, in words” value in series [5] was “precipitate from the blood easily”. Further, the “solubility in water, in words” value in series [6] is reported as “poor solubility in water”. In addition, the “Cytotoxicity index (CI)” value in series [1] (drug 1.0 μg/ml, L-ascorbate 100 μg/ml) was found to be 76.6%; in [1] (drug 10 μg/ml, no L-ascorbate) it was 87.9%. The molecule further showed a solubility in “Solubility in H2O” of 74 µg/mL (≈ 0.44 mM).
On to `COc1cc(O)c(SCC(=O)O)c(OC)c1O` [DMQ-MA, 2,6-dimethoxyhydroquinone-3-mercaptoacetic acid], for which the “cytotoxicity compared with DMQ, in words” value with human tumor cell lines is “less cytotoxic”. Further, in the series on human tumor cell lines, the “cytotoxicity in combination with L-ascorbic acid or D-isoascorbic acid, in words” value is “greatly augmented; also recorded: act synergistically”. Moreover, in series [1] (drug 10 μg/ml, L-ascorbate 1.0 μg/ml (so in the source)), the “Cytotoxicity index (CI)” value came out at 22.1%. For the same molecule, the CI was 86% in series [1] (setting [10]); 0% in [1] (setting [11]); 86% in series [2] (setting [10]); 2% in series [2] (setting [11]); 79% in series [3] (setting [10]); 3% in series [3] (setting [11]). The CI amounted to 89% in [4] (setting [10]) and 0% in series [4] (setting [11]). The “CI value compared with DMQ, in words” value in series [1] (drug 10 μg/ml) is given as “significantly lower than DMQ”. Further, the “solubility relative to DMQ (times higher)” value in “Solubility in H2O” was “about 70 times”. Moreover, the “water-solubility, in words” value in the series “Solubility in H2O” was “a lot more water-soluble than DMQ; also recorded: significantly improved water-solubility in comparison with DMQ”. For the same molecule, in “Solubility in H2O”, the concentration in solution (solubility) was 5000 µg/mL (≈ 19.2 mM). In series [7], the “hydrophobicity, in words” value is “a certain degree of hydrophobicity”.
As for `COc1cc(O)c(SCCC(=O)O)c(OC)c1O` [DMQ-MP, 2,6-dimethoxyhydroquinone-3-mercaptopropionic acid], the cytotoxicity at 100 µg/mL in the series on human tumor cell lines (four human tumor cell lines) was less than 25%. Further, the “CI values, summary” value in the series with human tumor cell lines (DMQ-MP 1 μg/ml in combination with D-isoascorbic acid 100 μg/ml, four human tumor cell lines, 5760 min) is given as 77-88%. Further, the “cytotoxicity compared with DMQ, in words” value in the series with human tumor cell lines was “less cytotoxic”. Also, the “cytotoxicity in combination with L-ascorbic acid or D-isoascorbic acid, in words” value with human tumor cell lines was “greatly augmented; also recorded: act synergistically”. In series [1] (drug 10 μg/ml, no L-ascorbate), the “Cytotoxicity index (CI)” value is 43.5%. Moreover, the CI in series [1] (setting [12]) was 78%; in series [1] (setting [13]), 17%; in series [2] (setting [12]), 77%; in series [2] (setting [13]), 13%; in series [3] (setting [12]), 88%; in [3] (setting [13]), 11%. Besides, the results for the CI in series [4] (setting [12]) and in series [4] (setting [13]) were 79% and 10%, respectively. Further, the “CI value compared with DMQ, in words” value in series [1] (drug 10 μg/ml) is “significantly lower than DMQ”. Besides, the “solubility relative to DMQ (times higher)” value in the series “Solubility in H2O” is “about 70 times”. Besides, in the series “Solubility in H2O”, the “water-solubility, in words” value was “a lot more water-soluble than DMQ; also recorded: significantly improved water-solubility in comparison with DMQ”. In the series “Solubility in H2O”, this molecule displayed a solubility of 5330 µg/mL (≈ 19.4 mM). In series [7], the “hydrophobicity, in words” value is “a certain degree of hydrophobicity”.
Regarding `O=C1O[C@H]([C@@H](O)CO)C(O)=C1O` [L-ascorbate, reference compound], the “concentration of L-ascorbate in the human body” value in [8] is not above 1000 µM. In addition, the CI is given as 5% in [1] (setting [14]), 9% in [2] (setting [14]), 2% in [3] (setting [14]) and 0.4% in series [4] (setting [14]).
